# According to ChEMBL document CHEMBL1138200, “Dihydropyrrolopyrazole transforming growth factor-beta type I receptor kinase domain inhibitors: a novel benzimidazole series with selectivity versus transforming growth factor-beta type II receptor kinase and mixed lineage kinase-7” (J Med Chem, 2006):
# How the values were obtained:
# TGF-beta receptor type-1 [1] = target: T1, TGF-beta receptor type-1 (Homo sapiens, UniProt P36897); assay: Inhibition of TGFbeta R1 induced transcriptional activation of p3TP-Lux in mink Mv1Lu lung cells; assay type: functional, cell-based, Mustela
# T1 sequence (P36897 whole entry): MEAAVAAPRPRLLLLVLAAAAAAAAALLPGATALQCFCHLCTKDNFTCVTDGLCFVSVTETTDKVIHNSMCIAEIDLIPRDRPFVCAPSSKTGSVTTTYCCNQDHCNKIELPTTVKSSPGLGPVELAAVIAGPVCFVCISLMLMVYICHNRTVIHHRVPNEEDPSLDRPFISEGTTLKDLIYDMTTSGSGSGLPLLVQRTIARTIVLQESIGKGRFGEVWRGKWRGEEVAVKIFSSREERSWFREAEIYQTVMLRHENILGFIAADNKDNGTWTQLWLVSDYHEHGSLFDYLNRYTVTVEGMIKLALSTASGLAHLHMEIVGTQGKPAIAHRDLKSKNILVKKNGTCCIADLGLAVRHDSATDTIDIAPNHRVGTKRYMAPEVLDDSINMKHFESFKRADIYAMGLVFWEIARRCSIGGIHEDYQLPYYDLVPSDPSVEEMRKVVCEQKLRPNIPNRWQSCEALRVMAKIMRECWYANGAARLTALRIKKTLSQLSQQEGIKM
# TGF-beta receptor type-2 = TGF-beta receptor type-2 (Homo sapiens, UniProt P37173); assay: Inhibition of recombinant human TGFbeta R2 expressed in Sf9 cells
# TGF-beta receptor type-1 [2] = target: T1, TGF-beta receptor type-1; assay: Inhibition of recombinant human TGFbeta R1 expressed in Sf9 cells
# [3] = target: Mitogen-activated protein kinase kinase kinase 20 (Homo sapiens, UniProt Q9NYL2); assay: Inhibition of MLK7
# [4] = Inhibitory activity against TGF-beta-stimulated proliferation in NIH3T3 cells; assay type: functional, cell-based; conditions: Mus musculus
# Cytochrome P450 2D6 = Cytochrome P450 2D6 (Homo sapiens, UniProt P10635); assay: Inhibition of cytochrome P450 2D6; assay type: ADME
# Cytochrome P450 2D6, sequence (P10635 whole entry): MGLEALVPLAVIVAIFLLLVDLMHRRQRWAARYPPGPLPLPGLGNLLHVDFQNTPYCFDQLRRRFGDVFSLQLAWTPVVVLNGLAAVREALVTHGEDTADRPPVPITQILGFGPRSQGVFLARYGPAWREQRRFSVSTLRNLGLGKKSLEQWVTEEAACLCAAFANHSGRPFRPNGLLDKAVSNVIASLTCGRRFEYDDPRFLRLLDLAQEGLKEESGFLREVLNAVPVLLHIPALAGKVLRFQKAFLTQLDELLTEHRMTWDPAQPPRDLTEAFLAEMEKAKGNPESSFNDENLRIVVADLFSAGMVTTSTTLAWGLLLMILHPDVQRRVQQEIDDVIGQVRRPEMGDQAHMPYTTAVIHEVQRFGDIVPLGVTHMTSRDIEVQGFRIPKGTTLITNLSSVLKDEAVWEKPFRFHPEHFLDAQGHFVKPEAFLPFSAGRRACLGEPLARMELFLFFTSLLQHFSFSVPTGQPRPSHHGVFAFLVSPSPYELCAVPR
# Mitogen-activated protein kinase kinase kinase 20, sequence (Q9NYL2 whole entry): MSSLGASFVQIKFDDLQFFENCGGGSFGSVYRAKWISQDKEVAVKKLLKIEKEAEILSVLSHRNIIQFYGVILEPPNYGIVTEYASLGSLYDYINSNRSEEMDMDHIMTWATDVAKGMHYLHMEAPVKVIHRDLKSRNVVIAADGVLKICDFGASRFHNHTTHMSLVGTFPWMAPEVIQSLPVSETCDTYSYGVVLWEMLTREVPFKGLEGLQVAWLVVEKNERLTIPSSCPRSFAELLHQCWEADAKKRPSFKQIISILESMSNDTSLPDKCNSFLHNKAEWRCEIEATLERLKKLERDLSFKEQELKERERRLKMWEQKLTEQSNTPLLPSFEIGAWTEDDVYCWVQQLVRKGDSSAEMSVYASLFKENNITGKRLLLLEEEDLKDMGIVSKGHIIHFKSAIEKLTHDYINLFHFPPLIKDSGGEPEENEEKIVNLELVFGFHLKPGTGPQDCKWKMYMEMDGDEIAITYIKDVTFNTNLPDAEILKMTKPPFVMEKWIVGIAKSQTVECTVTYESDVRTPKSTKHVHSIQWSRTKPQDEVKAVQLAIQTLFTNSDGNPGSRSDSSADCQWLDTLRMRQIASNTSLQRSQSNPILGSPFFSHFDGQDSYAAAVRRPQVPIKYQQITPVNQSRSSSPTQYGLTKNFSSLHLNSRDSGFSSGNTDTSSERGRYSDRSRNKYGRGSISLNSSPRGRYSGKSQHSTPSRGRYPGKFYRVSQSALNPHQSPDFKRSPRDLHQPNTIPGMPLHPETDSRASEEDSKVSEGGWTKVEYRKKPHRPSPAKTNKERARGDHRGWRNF
# TGF-beta receptor type-2, sequence (P37173 whole entry): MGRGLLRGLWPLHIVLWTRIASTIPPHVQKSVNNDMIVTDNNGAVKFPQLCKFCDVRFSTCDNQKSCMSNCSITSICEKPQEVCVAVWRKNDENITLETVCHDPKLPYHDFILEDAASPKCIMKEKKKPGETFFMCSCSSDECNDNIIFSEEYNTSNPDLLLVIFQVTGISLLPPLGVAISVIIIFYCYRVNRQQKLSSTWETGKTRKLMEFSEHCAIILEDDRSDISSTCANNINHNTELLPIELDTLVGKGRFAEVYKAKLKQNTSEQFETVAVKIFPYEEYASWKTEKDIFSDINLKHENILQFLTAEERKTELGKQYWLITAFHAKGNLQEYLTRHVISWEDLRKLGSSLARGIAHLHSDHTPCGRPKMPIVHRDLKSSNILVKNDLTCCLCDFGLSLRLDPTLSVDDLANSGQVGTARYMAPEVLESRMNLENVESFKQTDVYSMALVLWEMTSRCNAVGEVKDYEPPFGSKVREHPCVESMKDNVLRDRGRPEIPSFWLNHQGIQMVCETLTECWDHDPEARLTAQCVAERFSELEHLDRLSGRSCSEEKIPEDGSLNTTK
Compound,IC50 (TGF-beta receptor type-1 [1]),IC50 (TGF-beta receptor type-2),IC50 (TGF-beta receptor type-1 [2]),IC50 [3],IC50 [4],IC50 (Cytochrome P450 2D6)
Cc1cccc(-c2nn3c(c2-c2ccc4c(c2)ncn4CCCOC2CCCCO2)CCC3)n1 (stereo not drawn),2430 nM,14500 nM,1830 nM,> 20000 nM,–,–
CN(C)CCCn1cnc2ccc(-c3c(-c4ccccn4)nn4c3CCC4)cc21,104 nM,> 20000 nM,398 nM,15900 nM,1000 nM,–
Cn1cnc2cc(-c3c(-c4ccccn4)nn4c3CCC4)ccc21,1370 nM,19600 nM,4740 nM,> 20000 nM,1620 nM,–
OCCCn1cnc2ccc(-c3c(-c4ccccn4)nn4c3CCC4)cc21,79 nM,352 nM,79 nM,708 nM,371 nM,–
CCN(CC)CCCn1cnc2ccc(-c3c(-c4cccc(C)n4)nn4c3CCC4)cc21,100 nM,> 20000 nM,122 nM,> 20000 nM,274 nM,–
c1ccc(-c2nn3c(c2-c2ccc4[nH]ccc4c2)CCC3)nc1,–,> 20000 nM,> 20000 nM,> 20000 nM,–,–
Cc1cccc(-c2nn3c(c2-c2ccc4ncn(CCCO)c4c2)CCC3)n1,78 nM,690 nM,41 nM,2810 nM,371 nM,–
c1ccc(-c2nn3c(c2-c2ccc4[nH]cnc4c2)CCC3)nc1,–,8730 nM,–,–,–,–
c1ccc(-c2nn3c(c2-c2ccc4c(c2)ncn4CCCOC2CCCCO2)CCC3)nc1 (stereo not drawn),5890 nM,> 20000 nM,6580 nM,> 20000 nM,4700 nM,–
Cn1cnc2ccc(-c3c(-c4ccccn4)nn4c3CCC4)cc21,8 nM,395 nM,75 nM,1310 nM,32 nM,–
Cc1cccc(-c2nn3c(c2-c2ccc4ncn(C)c4c2)CCC3)n1,29 nM,668 nM,22 nM,2340 nM,96 nM,–
Cc1cccc(-c2nn3c(c2-c2ccc4ncn(CCCN5CCCC5)c4c2)CCC3)n1,117 nM,> 20000 nM,74 nM,> 20000 nM,249 nM,–
c1ccc(-c2n[nH]cc2-c2ccnc3ccccc23)nc1,–,400 nM,–,1400 nM,81 nM,–
Cc1cccc(-c2nn3c(c2-c2ccc4ncn(CCCN5CCCCC5)c4c2)CCC3)n1,51 nM,> 20000 nM,155 nM,> 20000 nM,150 nM,–
Cc1cccc(-c2nn3c(c2-c2ccc4c(ccn4C)c2)CCC3)n1,–,> 20000 nM,4100 nM,> 20000 nM,–,–
c1ccc(-c2nn3c(c2-c2ccc4ncn(CCCN5CCCC5)c4c2)CCC3)nc1,226 nM,10800 nM,246 nM,4880 nM,854 nM,–
Cc1cccc(-c2nn3c(c2-c2ccc4ncn(CCCN5CCOCC5)c4c2)CCC3)n1,186 nM,19800 nM,69 nM,8480 nM,277 nM,–
Cc1cccc(-c2nn3c(c2-c2ccc4nc[nH]c4c2)CCC3)n1,15 nM,1300 nM,47 nM,15900 nM,42 nM,27000 nM
Cn1ccc2cc(-c3c(-c4ccccn4)nn4c3CCC4)ccc21,–,> 20000 nM,12200 nM,16600 nM,–,–
Cc1cccc(-c2nn3c(c2-c2ccc4ncn(CCCN(C)C)c4c2)CCC3)n1,53 nM,> 20000 nM,85 nM,> 20000 nM,139 nM,–
